Assay results published in US20200163938A1, “PHARMACEUTICAL COMPOSITION COMPRISING IRON CHELATOR EXHIBITING ANTITUMOR ACTIVITY, ANTIBACTERIAL ACTIVITY AND/OR ANTIVIRUS ACTIVITY, AND HAVING REDUCED SIDE EFFECTS” (priority 2017, published 2020).
Values joined by “and” are separate entries in the source; they are usually repeats but may differ in a detail not shown here. Equal values may be shown once. Read-outs that look alike come from different tables or passages of the source.

Columns and labels:
[1] = system: human oral squamous cell carcinoma HSC-2; assay: Antitumor effects, cell viability (XTT method); assay type: cell-based; conditions: FIG. 10
Experimental: (§1) The antitumor effects of the chelating agents of test groups 1 to 10 on each of human lung cancer cell line A549, human liver cancer cell line PLC, and human colon adenocarcinoma cell line HCT116 were confirmed. A549 cells or PLC cells were seeded at 3000 cells/well, and HCT116 cells were seeded at 6000 cells/well. After 24 hours, the fetal bovine serum (FBS) concentration was changed from 10% to 1%, each compound of the test groups 1 to 10 was introduced into medium. Cell viability was confirmed after 48 hours by the Trypan blue method, or, cell viability was confirmed after 48 hours by performing medium exchange and then after 24 hours by performing the XTT method. Deferoxamine mesylate (Desferal (Trademark)) was used as a positive control. Results are as depicted in FIGS. 1A, 1B, 2 and 3.
(§2) Moreover, similarly to the above experiment on antitumor effects, the antitumor effects of the chelating agent of test group 6 or 10 on each of human breast cancer cell line MCF-7 and human oral squamous cell carcinoma HSC-2 were confirmed.

[2] = system: human breast cancer cell line MCF-7; assay: Antitumor effects, cell viability (XTT method); assay type: cell-based; conditions: FIG. 9
Experimental: as §1, §2

[3] = assay type: in vivo; design: NEFA: unit not given here; conditions: for Body weight: rats
Experimental: To a negative control group (saline administration; n=6), the same amount of saline was administered. On day 14 after administration, determining life or death, measurement of body weight, physical items (respiration, body temperature, behavior, etc.) were observed. Moreover, blood samples were taken from each group, and the right kidneys and the livers were removed. Results were as depicted in FIG. 5A to 5C and Tables 4 to 9.

HCT116 cells = assay: Apoptosis induction, TUNEL staining; assay type: cell-based, human; conditions: 10 μg/mL, 48 hours, FIG. 11B
Experimental: (§3) Furthermore, the apoptosis-inducing effects of the chelating agents of test groups 6 and 10 on tumors were confirmed. First, 100 μg/mL of the chelating agent of test group 6 or 50 μg/mL of the chelating agent of test group 10 was added to HSC-2 cells in a culture solution. After 48 hours of reaction, TUNEL Assay was carried out. Specifically, apoptosis induction was evaluated by the TUNEL staining method using a MK500 in situ Apoptosis Detection Kit (Takara Bio Inc.).
Similarly, the apoptosis-inducing effects of the chelating agent of test group 6 or 10 on HCT116 cells were confirmed. 10 μg/mL of the chelating agent of test group 6 was added and 6.5 µg/mL of the chelating agent of test group 10 was added to the cells. After 48 hours of reaction, TUNEL staining was carried out similarly to the above.

[4] = system: subcutaneously-transplanted HCT116 cells; assay type: in vivo, nude mice (BALB/c nu/nu); conditions: mouse, in vivo, 200 mg/kg/day
Experimental: Next, the antitumor effects of the chelating agents of test groups 6 and 10 on HCT116-cell subcutaneous transplantation model mice, into which HCT116 cells had been subcutaneously transplanted, were confirmed. Mice prepared herein were nude mice (BALB/c nu/nu, 6 weeks old: Clea Japan Inc.). HCT116 cells were adjusted at 3×10^6/mouse, and then mixed with Matrigel (BD Biosciences) at 1:1. The thus obtained mixture was administered to mice, thereby preparing subcutaneous tumors. The dosage was 200 mg/kg/day (5 times/week administration). […] Tissue sections of HCT116 cells subcutaneously transplanted into the test group 10 administration group were prepared, and then hematoxylin-eosin (HE) staining, and TUNEL staining were performed by the above-mentioned method.

[5] = system: C. albicans (ATCC10231; Candida albicans); assay: Minimum growth inhibition concentration (MIC); assay type: cell-based; conditions: 24 hours
Experimental: (§4) The dilution series of the chelating agent of each test group was prepared according to a standard method, microbes were inoculated, and then 24 hours later, the microbial growth was confirmed, thereby determining the minimum growth inhibition concentration of the chelating agent of each test group. Microbes used herein were S. aureus (ATCC6538; Staphylococcus aureus), P. aeruginosa (ATCC9027; Pseudomonas aeruginosa) and C. albicans (ATCC10231; Candida albicans). Drugs used herein were oxacillin, vancomycin and deferasirox as positive controls.

[6] = system: S. aureus (ATCC6538; Staphylococcus aureus); assay: Minimum growth inhibition concentration (MIC); assay type: cell-based
Experimental: as §4

[7] = system: P. aeruginosa (ATCC9027; Pseudomonas aeruginosa); assay: Minimum growth inhibition concentration (MIC); assay type: cell-based
Experimental: as §4

HSC-2 cells = assay: Apoptosis induction, TUNEL staining; assay type: cell-based, human; conditions: 100 μg/mL, 48 hours, FIG. 11A
Experimental: as §3

[8] = system: A. actinomycetemcomitans AaY4 (ATCC); assay: Antibacterial activity, turbidity and ATP assay; assay type: cell-based, Aggregatibacter actinomycetemcomitans; conditions: anaerobic culture 37° C., 18 hours; FIGS. 7A, 7B
Experimental: A bacterial strain of one of periodontopathic bacteria, A. actinomycetemcomitans, used herein was AaY4 (ATCC). With the use of a liquid medium prepared by adding a yeast extract, sodium bicarbonate and the chelating agent of each test group to TSB medium, anaerobic culture (Anaeropack-anaerobic) was performed at 37° C. for 18 hours. Turbidity was measured using absorbance (OD570 or 595 nm), and cell activity was measured using an ATP assay kit. Results were as depicted in FIGS. 7A and 7B.

P. gingivalis Pg W83 = assay: Antibacterial activity, turbidity and ATP assay; assay type: cell-based, Porphyromonas gingivalis; conditions: anaerobic culture 37° C., 18 hours, OD595 nm; FIG. 8
Experimental: A bacterial strain of one of periodontopathic bacteria, gram-negative bacillus, P. gingivalis, used herein was Pg W83. With the use of a liquid medium prepared by adding the chelating agent of each test group to a modified GAM bouillon medium, anaerobic culture (Anaeropack.anaerobic) was performed at 37° C. for 18 hours. Turbidity was found from optical density (OD595 nm). Results were as depicted in FIG. 8.

[9] = rat blood, oral 200 mg/kg, day 14
[10] = rat blood, oral 1000 mg/kg, day 14, 1000 mg/kg

Question: With `Cl.OCC1OC(O)C(NCc2ccc(O)c(O)c2O)C(O)C1O` (centres unmarked) [Test group 6] as the compound, how does the “antitumor effects on HSC-2 (cell viability)” value [1] read?
Answer: Its value is “exhibit antitumor effects”.

Question: What about the “antitumor effects on MCF-7 (cell viability)” value [2] of the same compound?
Answer: Its value is “exhibit antitumor effects”.

Question: What about the ALP [3, 9] of the same compound?
Answer: Its ALP is 745 IU/L.

Question: And the ALT [3, 9]?
Answer: Its ALT is 34 IU/L.

Question: What about the AST [3, 9] of the same compound?
Answer: The AST was 58 IU/L.

Question: And the BUN [3, 9]?
Answer: Its BUN is 27.2 mg/dL.

Question: And the CRE [3, 9]?
Answer: The CRE was 0.37 mg/dL.

Question: What about the Ca [3, 9] of the same compound?
Answer: Its Ca is 10.2 mg/dL.

Question: What about the GLU [3, 9] of the same compound?
Answer: The GLU was 212 mg/dL.

Question: And the K [3, 9]?
Answer: Its K is 3.6 mEQ/L.

Question: And the LD [3, 9]?
Answer: The LD was 45 IU/L.

Question: What about the NEFA [3, 9] of the same compound?
Answer: The NEFA was 58.

Question: What about the Na [3, 9] of the same compound?
Answer: The Na was 141 mEQ/L.

Question: What about the T-Bil [3, 9] of the same compound?
Answer: Its T-Bil is 0.03 mg/dL.

Question: And the TP [3, 9]?
Answer: Its TP is 5.1 g/dL.

Question: And the ALP [3, 10]?
Answer: The ALP was 437 IU/L and 471 IU/L.

Question: What about the BUN [3, 10] of the same compound?
Answer: The BUN was 22.2 mg/dL and 28.9 mg/dL.

Question: What about the CRE [3, 10] of the same compound?
Answer: The CRE was 0.31 mg/dL and 0.48 mg/dL.

Question: What about the Ca [3, 10] of the same compound?
Answer: Its Ca is 10.2 mg/dL and 11.0 mg/dL.

Question: What about the GLU [3, 10] of the same compound?
Answer: Its GLU is 159 mg/dL and 199 mg/dL.

Question: What about the K [3, 10] of the same compound?
Answer: Its K is 4.5 mEQ/L and 4.1 mEQ/L.

Question: And the Na [3, 10]?
Answer: The Na was 144 mEQ/L and 143 mEQ/L.

Question: And the TP [3, 10]?
Answer: The TP was 5.4 g/dL and 5.1 g/dL.

Question: What about the Body weight ([3]; oral 200 mg/kg) of the same compound?
Answer: The Body weight was 180.37 g.

Question: And the Body weight ([3]; oral 1000 mg/kg, 1000 mg/kg)?
Answer: The Body weight was 174.48 g and 178.68 g.

Question: And the “apoptosis-inducing effects (TUNEL staining)” value (HCT116 cells)?
Answer: The value was “green-stained cells indicating apoptosis were confirmed”.

Question: And the body weight change [4]?
Answer: Its body weight change is “no body weight change due to administration was observed”.

Question: What about the “MIC C. albicans” value [5] of the same compound?
Answer: The value was >800 µg/mL.

Question: What about the “MIC S. aureus” value ([6]; 24 hours) of the same compound?
Answer: Its value is 400 µg/mL.

Question: What about the “antimicrobial effects on S. aureus (in words)” value ([6]; from Table 10) of the same compound?
Answer: The value was “strong antimicrobial effects”.

Question: And the “MIC P. aeruginosa” value ([7]; 24 hours)?
Answer: The value was 400 µg/mL.

Question: And the “antimicrobial effects on P. aeruginosa (in words)” value ([7]; from Table 10)?
Answer: Its value is “exhibited antimicrobial effects”.

Question: And the “apoptosis-inducing effects (TUNEL staining)” value (HSC-2 cells)?
Answer: Its value is “green-stained cells indicating apoptosis were confirmed”.

Question: What about the “antimicrobial effects on A. actinomycetemcomitans (turbidity, ATP activity)” value [8] of the same compound?
Answer: The value was “strong antimicrobial effects”.

Question: And the “antimicrobial effects on P. gingivalis (turbidity)” value (P. gingivalis Pg W83)?
Answer: The value was “exhibited antimicrobial effects”.
